We go through 80 molecules from the METLIN SMRT retention time set (Domingo-Almenara et al. 2019).

This data set in a line: gradient 5% acetonitrile 3 min, to 50% in 2 min, to 85% in 15 min, held 3 min, 100 µL/min. The note with it: column: Zorbax Extend-C18 2.1 x 50 mm; eluents: water / acetonitrile, 0.1% formic acid. The essentials: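 Retention time was recorded from adduct peaks, which were picked computationally and each inspected manually. Pure standards ran in mixtures of ~100 molecules on HPLC coupled to a quadrupole time-of-flight mass spectrometer, in positive and negative ionization mode, through a Zorbax Extend-C18 column (2.1 × 50 mm, 1.8 μm) at 100 μL/min. Eluents were water and acetonitrile, each with 0.1% formic acid.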
In turn, `Cc1ccc(-n2ccnc(NC(=O)Nc3cccc(F)c3)c2=O)cc1C` showed an RP-LC retention time of 1070 s.

`COC(=O)c1c(-c2ccc(F)cc2)noc1NCCc1cccs1` showed an RP-LC retention time of 1090 s.

For the molecule `COc1cccc(Cn2c(=O)c3ccnn3c3ccc(C(=O)O)cc32)c1`, the RP-LC retention time was 785 s.

For `Cc1noc(C)c1S(=O)(=O)N1CCC(n2c(C)cnc2-c2ccccc2)CC1`, the RP-LC retention time was 682 s.

In turn, `O=C(NC1CC1)c1ccc(OCC2CCCN2C(=O)c2c(F)cccc2F)cc1` (stereo not given) had an RP-LC retention time of 741 s.

In turn, `Cc1ccc(CNC(=O)N2CCC[C@@H]2C(=O)NCc2csc(-c3ccccc3)n2)cc1` displayed an RP-LC retention time of 824 s.

As for `O=C(c1ccccn1)N1CCCC1c1nc(-c2ccc(F)cc2F)no1` (stereo not given), the RP-LC retention time came out at 832 s.

With `Cc1ccc(Cl)cc1N1CCN(c2cc(C(=O)O)c3cc(NC(=O)C4CCCC4)ccc3n2)CC1`, the RP-LC retention time stood at 851 s.

Take `CNC(=O)NC1CCN(c2nc3cccnc3n(Cc3ccc(C)cc3)c2=O)CC1`: the RP-LC retention time came to 860 s.

In the case of `Cc1ccc(C(=O)Nc2ccc3c(c2)CCC(=O)N3C)s1`, the RP-LC retention time came out at 712 s.

Consider `CCn1ccc(C(=O)N2CCCC2c2ccc(F)cc2)n1` (stereo not given), for which the RP-LC retention time was determined as 816 s.

With `CCOc1ccc(-c2noc(Cn3cnc4c(cnn4-c4ccc(CC)cc4)c3=O)n2)cc1OC`, the RP-LC retention time was found to be 1070 s.

On to `CN1C(=O)COc2ccc(-c3csc(NC(=O)c4ccc(Br)cc4)n3)cc21`, for which the RP-LC retention time was found to be 1040 s.

`Cc1nc(NCCNC(=O)c2snnc2C)cc(-n2cccn2)n1` yielded an RP-LC retention time of 627 s.

Take `CCOc1ccc(-c2noc(N3CCC(C(=O)N4CCOCC4)CC3)n2)cc1OC`: the RP-LC retention time is 736 s.

Turning to `COCc1nc(C2CCN(S(=O)(=O)c3ccc4c(c3)OCCO4)C2)no1` (stereo not given), the RP-LC retention time worked out at 779 s.

`COC(=O)c1sccc1NC(=O)N1CCCC1c1nc(-c2ccccc2)no1` (stereo not given) registered an RP-LC retention time of 1050 s.

The molecule `COc1ccc(NC(=O)C2CCN(S(=O)(=O)c3ccc4[nH]c(=O)ccc4c3)CC2)cc1Cl` showed an RP-LC retention time of 752 s.

As to `COc1nc(N)nc2c1ncn2[C@@H]1O[C@H](CO)[C@@H](O)[C@@H]1O`, the RP-LC retention time stood at 568 s.

In turn, `CSc1ncccc1C(=O)NCc1cc(-c2ccc3c(c2)OCCO3)on1` yielded an RP-LC retention time of 748 s.

With `Cc1ccc(C)c(NC(=O)N2CCC(c3nc(C(=O)N4CCOCC4)c(C)o3)CC2)c1`, the RP-LC retention time turned out to be 712 s.

Molecule `CCc1nccn1Cc1noc(-c2ccccc2)n1` displayed an RP-LC retention time of 634 s.

`O=C(c1ccc(F)cc1)N1CCN(c2ccc(=O)n(-c3cccc(Cl)c3)n2)CC1`: the RP-LC retention time worked out at 869 s.

Molecule `CCOc1ccccc1C(=O)Nc1ccc(Cl)c(C(F)(F)F)c1` showed an RP-LC retention time of 1230 s.

Consider `CC1(C)Cc2cccc(OCC(=O)Nc3ncc([N+](=O)[O-])s3)c2O1`, for which the RP-LC retention time was 906 s.

For the molecule `O=C(NCCc1cn2c(n1)SCC2)C(=O)Nc1ccc(F)cc1`, the RP-LC retention time worked out at 542 s.

`COc1cccc(CNC(=O)c2cc3ccncc3n2C)c1OC` yielded an RP-LC retention time of 602 s.

The molecule `CCOC(=O)c1cc2n(n1)CC(C)(C(=O)NC1CCCC1)N(c1ccccc1F)C2=O` (stereo not given) showed an RP-LC retention time of 876 s.

Molecule `COc1ccc(S(=O)(=O)N2CCC(Cc3nncn3C)CC2)cc1` displayed an RP-LC retention time of 657 s.

The molecule `CN(C)c1ccc(C(CNC(=O)CN2C(=O)c3ccccc3C2=O)N2CCCC2)cc1` (stereo not given) gave an RP-LC retention time of 559 s.

The molecule `Cc1c(Br)cc(C(=O)NC(C)C)c(C)c1C` had an RP-LC retention time of 838 s.

For `COc1ccc(N2CCN(C(=O)C3CCCN(c4nnc5cccc(C)n45)C3)CC2)cc1` (stereo not given), the RP-LC retention time worked out at 661 s.

The molecule `CCc1noc(NC(C)=O)c1-c1ccc(C)c(S(=O)(=O)N2CCN(c3ccccc3F)CC2)c1` yielded an RP-LC retention time of 723 s.

`COc1ccc(F)cc1S(=O)(=O)N1CCC2(CC1)NCCCN=C2NC1CCCC1` returned an RP-LC retention time of 607 s.

In turn, `O=C(C1CCN(c2nnc3ccc(Cl)cn23)CC1)N1CCOCC1` yielded an RP-LC retention time of 599 s.

In turn, `O=C(NCc1ccc(-c2nc(-c3ccc(F)cc3)no2)s1)C1CCC1` came in with an RP-LC retention time of 975 s.

The molecule `O=C(c1ccc(F)cc1F)N1CCN(c2cc(-c3cccs3)[nH]n2)CC1` had an RP-LC retention time of 784 s.

For the molecule `COc1cccc(-n2c(N3CCCC(C(=O)NCC4CC4)C3)nc3ccsc3c2=O)c1` (stereo not given), the RP-LC retention time is 771 s.

`Cc1cc(-c2nnc(-c3ccc(F)cc3)o2)c(C)n1CC(=O)NCc1ccc(F)cc1`: the RP-LC retention time turned out to be 945 s.

For the molecule `COc1ccc(NC(=O)Cc2nnc(-c3ccc4ncccc4c3)o2)cc1Cl`, the RP-LC retention time stood at 728 s.

Consider `CCOc1ccc2ncc(S(=O)(=O)c3ccc(C)cc3)c(N3CCN(C)CC3)c2c1`, for which the RP-LC retention time was determined as 667 s.

Consider `CCN1C(=O)c2cccnc2Sc2cc(NC(=O)c3ccoc3)ccc21`, for which the RP-LC retention time came out at 745 s.

With `CCC(=O)N1CCc2cc(N3CC(C(=O)Nc4ccc(OC)c(Cl)c4)CC3=O)ccc21` (stereo not given), the RP-LC retention time turned out to be 779 s.

`CC(C)c1nnc(-c2ccc(=O)n(CC(=O)N3CCN(c4ccccn4)CC3)c2)o1` gave an RP-LC retention time of 570 s.

`O=C([C@@H]1C[C@H](Oc2ccccc2)CN1C(=O)c1ccco1)N1CCCC1` came in with an RP-LC retention time of 603 s.

Turning to `CC1(C)CCSC(/C=C/c2ccccc2)=N1`, the RP-LC retention time came to 690 s.

`O=C(c1ccc2ccccc2n1)N1CCC(OCC2CC2)C1` (stereo not given) yielded an RP-LC retention time of 832 s.

Molecule `CCn1c(CN(C)C(=O)Nc2ccc3c(c2)OCCO3)nc2cc(C(=O)N(C)C)ccc21` had an RP-LC retention time of 611 s.

For the molecule `O=C(Cc1ccccc1)N1CC(Oc2ccc(-c3nc(-c4ccccc4)no3)cc2)C1`, the RP-LC retention time worked out at 1150 s.

On to `CCc1nc2cc(-c3noc(-c4ccc5cc[nH]c5c4)n3)ccc2o1`, for which the RP-LC retention time came to 1110 s.

In turn, `O=C(Nc1nnc(C2CC(=O)N(c3ccc(F)cc3)C2)o1)c1ccccc1Cl` (stereo not given) came in with an RP-LC retention time of 712 s.

`O=C(CCc1nnn2c1CN(C(=O)c1ccc(F)cc1)CC2)NC1CC1` registered an RP-LC retention time of 617 s.

With `CCn1cc(CC(=O)NCC2CCCCC2)c2cccnc21`, the RP-LC retention time came to 783 s.

For `Cc1ccc(NC(=O)C2CCCN(c3nnc4cccc(C)n34)C2)cc1F` (stereo not given), the RP-LC retention time worked out at 753 s.

Turning to `Fc1cc(F)cc(-c2nnc(Cc3nc(-c4ccccn4)no3)o2)c1`, the RP-LC retention time stood at 814 s.

On to `CSc1ccc(CNC(=O)c2cn3cc(Cl)ccc3n2)cc1`, for which the RP-LC retention time is 895 s.

`COc1ccc(CCC(=O)NCC2CCN(C(=O)NC(C)(C)C)CC2)cc1` yielded an RP-LC retention time of 687 s.

Consider `CC(C)CN1C(=O)c2cccn2CC1C(=O)NCCCN1CCCC1=O` (stereo not given), for which the RP-LC retention time came to 617 s.

Molecule `CCOc1ccc(NS(=O)(=O)c2cc(-c3c(C)noc3NC(C)=O)ccc2OC)cc1` yielded an RP-LC retention time of 773 s.

As to `O=C(O)c1cn2ccnc(-c3ccccc3)c2n1`, the RP-LC retention time was 644 s.

As for `CCCn1cc(CCNC(=O)C2CC2)c2cccnc21`, the RP-LC retention time turned out to be 621 s.

As to `O=C(Nc1nccs1)c1ccccc1OCc1nc(-c2ccccc2)no1`, the RP-LC retention time turned out to be 953 s.

Molecule `O=C(Nc1cccc(Br)c1)C1CCCN(c2ncc(-c3cccc(F)c3)cn2)C1` (stereo not given) registered an RP-LC retention time of 1260 s.

Turning to `CCc1nnc(NC(=O)CN2C(=O)C3CCCCN3c3ccc(C(=O)N(C)C)cc32)s1` (stereo not given), the RP-LC retention time is 700 s.

In turn, `CCCCNC(=O)Cn1nc(C)c2nn(-c3ccc(Cl)cc3)c(-n3cccc3)c2c1=O` returned an RP-LC retention time of 1020 s.

For the molecule `[O-][n+]1ccc(CC(O)(C(F)(F)F)C(F)(F)F)cc1`, the RP-LC retention time was 674 s.

Molecule `CCOC(=O)c1nc(N2CCN(c3ccccc3F)CC2)c2c(C)noc2n1` yielded an RP-LC retention time of 1010 s.

Molecule `O=C(NCc1ccc(F)cc1)c1cn(-c2ccc(NC(=O)C3CC3)cn2)cn1` returned an RP-LC retention time of 748 s.

Regarding `CC1CCN(C(=O)CCC(=O)N2CCCN(c3nc4cccnc4s3)CC2)CC1`, the RP-LC retention time was 698 s.

`CSc1nc(N2CCCC2)c2cnn(CCNC(=O)c3ccc(=O)[nH]c3)c2n1` registered an RP-LC retention time of 593 s.

On to `Cc1nnc(NC(=O)CCc2c(C)[nH]c(=O)[nH]c2=O)s1`, for which the RP-LC retention time was 547 s.

Take `CSc1ccc(-c2nc3cc(C)ccn3c2Nc2ccc3c(c2)OCCO3)cc1`: the RP-LC retention time amounted to 719 s.

In turn, `CN(C(=O)Cn1cnc2c(-c3ccccc3)csc2c1=O)c1ccc(F)cc1` returned an RP-LC retention time of 938 s.

`O=C(Cn1cccc(-c2nc(-c3ccc(Br)cc3)no2)c1=O)Nc1ccc(F)cc1` had an RP-LC retention time of 980 s.

`CCn1c(C(=O)NCc2ccccc2OC)cc2sc(Cl)cc21` registered an RP-LC retention time of 1130 s.

As to `Cc1onc(-c2ccccc2Cl)c1C(=O)OCn1nnc2ccccc2c1=O`, the RP-LC retention time was found to be 891 s.

The molecule `COc1ccc(-c2csc3c(=O)n(CC(=O)OC(C)C)cnc23)cc1` displayed an RP-LC retention time of 939 s.

As for `CCC(=O)Nc1ccc2c(c1)N(C(=O)c1cccs1)CCC2`, the RP-LC retention time is 717 s.

Regarding `COc1ccc2c(c1)C1(CCN(S(=O)(=O)c3ccccc3)C1)C(=O)N2C` (stereo not given), the RP-LC retention time was found to be 882 s.

Molecule `CS(=O)(=O)c1ccc(-c2cccc(NS(=O)(=O)c3ccc4c(c3)CCCC4)c2)nn1` had an RP-LC retention time of 855 s.
